For test [1], the system named is K562. Nature of the test: Cytotoxicity against human K562 cells assessed as reduction in cell viability measured after 72 hrs by MTT assay. The class given is functional, cell-based. The settings on record: K562, 72 h. (Tetrazolium dyes change colour on reduction, which living cells bring about.)
The test system of test [2] is HUVEC. In words: Cytotoxicity against HUVEC assessed as reduction in cell viability measured after 24 hrs by MTT assay. The class given is cell-based. The note with it: Homo sapiens.
Test [3] has as its system THP-1. Nature of the test: Cytotoxicity against human THP-1 cells assessed as reduction in cell viability measured after 24 hrs by MTT assay. It counts as functional, cell-based. The settings on record: THP-1, 24 h.
Test [4] relates to THP-1. In words: Cytotoxicity against human THP-1 cells assessed as reduction in cell viability measured after 72 hrs by MTT assay. It counts as functional, cell-based. The note with it: THP-1, 72 h.
Test [5] has as its system MCF7. Nature of the test: Cytotoxicity against human MCF7 cells assessed as reduction in cell viability measured after 72 hrs by MTT assay. It counts as functional, cell-based. The note with it: MCF7, 72 h.
The subject of test [6] is MCF7. In words: Cytotoxicity against human MCF7 cells assessed as reduction in cell viability measured after 24 hrs by MTT assay. The class given is functional, cell-based. The settings on record: MCF7, 24 h.
Test [7] has as its system HUVEC. In words: Cytotoxicity against HUVEC assessed as reduction in cell viability measured after 72 hrs by MTT assay. The class given is cell-based. The note with it: Homo sapiens.
In test [8] the test system is K562. Nature of the test: Cytotoxicity against human K562 cells assessed as reduction in cell viability measured after 24 hrs by MTT assay. The class given is functional, cell-based. The note with it: K562, 24 h.
Test [9] has as its system K562. In words: Cell cycle arrest in human K562 cells assessed as accumulation at G1 phase at 100 uM measured after 24 hrs by propidium iodide staining based flow cytometry analysis (reference value: 43.5+/- 0.3%). It counts as functional. (A flow cytometer gives signals particle by particle.)
The subject of test [10] is K562. Nature of the test: Cell cycle arrest in human K562 cells assessed as accumulation at S phase at 100 uM measured after 24 hrs by propidium iodide staining based flow cytometry analysis (reference value: 22.8+/- 0.5%). The class given is functional.
Test [11] deals with K562. In words: Cell cycle arrest in human K562 cells assessed as accumulation at G2/M phase at 100 uM measured after 24 hrs by propidium iodide staining based flow cytometry analysis (reference value: 25.6+/- 0.7%). It counts as functional.
Test [12] deals with K562. Nature of the test: Cell cycle arrest in human K562 cells assessed as accumulation at sub G1 phase at 100 uM measured after 24 hrs by propidium iodide staining based flow cytometry analysis (reference value: 6.5+/- 0.7%). It counts as functional.
Test [13] has as its system K562. In words: Induction of autophagy in human K562 cells at 50 uM after 24 hrs (reference value: 3.9+/- 1.1%). It counts as functional.
The test system of test [14] is K562. In words: Cell cycle arrest in human K562 cells assessed as accumulation at G1 phase at 50 uM measured after 24 hrs by propidium iodide staining based flow cytometry analysis (reference value: 43.5+/- 0.3%). The class given is functional.
For test [15], the system named is K562. Nature of the test: Induction of ROS production in human K562 cells at 100 uM incubated for 24 hrs relative to control. The class given is functional.
In test [16] the test system is K562. In words: Induction of autophagy in human K562 cells at 100 uM after 24 hrs (reference value: 3.9+/- 1.1%). It counts as functional.
For test [17], the system named is K562. Nature of the test: Induction of apoptosis in human K562 cells at 25 uM after 24 hrs by PI staining based flow cytometric analysis (reference value: 0.1+/- 0.05%). It counts as functional.
Test [18] deals with K562. In words: Cell cycle arrest in human K562 cells assessed as accumulation at G2/M phase at 25 uM measured after 24 hrs by propidium iodide staining based flow cytometry analysis (reference value: 25.6+/- 0.7%). The class given is functional.
In test [19] the test system is K562. Nature of the test: Cell cycle arrest in human K562 cells assessed as accumulation at G2/M phase at 50 uM measured after 24 hrs by propidium iodide staining based flow cytometry analysis (reference value: 25.6+/- 0.7%). It counts as functional.
Test [20] relates to K562. In words: Cell cycle arrest in human K562 cells assessed as accumulation at sub G1 phase at 50 uM measured after 24 hrs by propidium iodide staining based flow cytometry analysis (reference value: 6.5+/- 0.7%). It counts as functional.
In test [21] the test system is K562. Nature of the test: Cell cycle arrest in human K562 cells assessed as accumulation at S phase at 25 uM measured after 24 hrs by propidium iodide staining based flow cytometry analysis (reference value: 22.8+/- 0.5%). It counts as functional.
Test [22] deals with K562. Nature of the test: Induction of apoptosis in human K562 cells at 50 uM after 24 hrs by PI staining based flow cytometric analysis (reference value: 0.1+/- 0.05%). The class given is functional.
Test [23] concerns K562. Nature of the test: Induction of autophagy in human K562 cells at 25 uM after 24 hrs (reference value: 3.9+/- 1.1%). It counts as functional.
Test [24] deals with K562. In words: Cell cycle arrest in human K562 cells assessed as accumulation at S phase at 50 uM measured after 24 hrs by propidium iodide staining based flow cytometry analysis (reference value: 22.8+/- 0.5%). The class given is functional.
The subject of test [25] is K562. In words: Induction of apoptosis in human K562 cells at 100 uM after 24 hrs by PI staining based flow cytometric analysis (reference value: 0.1+/- 0.05%). The class given is functional.
In test [26] the test system is K562. Nature of the test: Cell cycle arrest in human K562 cells assessed as accumulation at sub G1 phase at 25 uM measured after 24 hrs by propidium iodide staining based flow cytometry analysis (reference value: 6.5+/- 0.7%). It counts as functional.
The test system of test [27] is K562. Nature of the test: Cell cycle arrest in human K562 cells assessed as accumulation at G1 phase at 25 uM measured after 24 hrs by propidium iodide staining based flow cytometry analysis (reference value: 43.5+/- 0.3%). The class given is functional.

pIC50: −log10 of the molar value.

What is called pIC50 is the negative decadic logarithm of the IC50, by convention in mol/L.

For the molecule `COc1ccc(/C=C2\CC[C@H]3C(C)(C)CCC[C@]3(C)[C@H]2CCC(C)CC(=O)O)cc1OC` (some centres not stated), the negative logarithm of the IC50 (pIC50) in the test on K562 [1] was below 3.70; in the test on HUVEC [2] it was below 3.70; in the test on THP-1 [3], 3.75; in the test on THP-1 [4], 3.97; with MCF7 [5] it was below 3.70; in the test on MCF7 [6], below 3.70. Also, the pIC50 in the test with HUVEC [7] and in the test on K562 [8] was below 3.70 in each case.
Take `CC(CC[C@H]1/C(=C/c2ccc(F)cc2)CC[C@H]2C(C)(C)CCC[C@]12C)CC(=O)O` (some centres not stated): the pIC50 with K562 [1], in the test with HUVEC [2], in the test on THP-1 [3], in the test with THP-1 [4], in the test on HUVEC [7] and in the test on K562 [8] was below 3.70 each time.
For `Cc1ccc(/C=C2\CC[C@H]3C(C)(C)CCC[C@]3(C)[C@H]2CCC(C)CC(=O)O)cc1` (some centres not stated), the pIC50 is below 3.70 with K562 [1]; below 3.70 in the test with HUVEC [2]; below 3.70 with THP-1 [3]; 4.04 in the test on THP-1 [4]; below 3.70 in the test with MCF7 [5]; below 3.70 with MCF7 [6]. Besides, the pIC50 with HUVEC [7] and in the test on K562 [8] was below 3.70 each time.
As for `CC(CC[C@H]1/C(=C/c2ccc(Cl)cc2)CC[C@H]2C(C)(C)CCC[C@]12C)CC(=O)O` (some centres not stated), the pIC50 with K562 [1], in the test with HUVEC [2], with THP-1 [3], in the test with THP-1 [4], in the test on HUVEC [7] and in the test with K562 [8] was below 3.70 each time.
With `C=C1CC[C@H]2C(C)(C)CCC[C@]2(C)[C@H]1CCC(C)CC(=O)OC` (some centres not stated), the pIC50 with K562 [1], with HUVEC [2], in the test on THP-1 [3], in the test with THP-1 [4], with MCF7 [5] and with MCF7 [6] was below 3.70 in each case. Also, the pIC50 with HUVEC [7] and with K562 [8] was below 3.70 throughout.
As for `COc1cc([C@@H]2c3cc4c(cc3[C@@H](O[C@@H]3O[C@@H]5CO[C@@H](C)O[C@H]5[C@H](O)[C@H]3O)[C@H]3COC(=O)[C@H]23)OCO4)cc(OC)c1O` [ETOPOSIDE], the Activity with K562 [9] was determined as 20.6%; in the test on K562 [10], 26%; with K562 [11], 30.4%; with K562 [12], 13%. Further, the pIC50 was 4.18 with K562 [1]; below 3.70 with HUVEC [2]; 4.23 in the test with THP-1 [3]; above 5.20 in the test with THP-1 [4]; 4.30 in the test with MCF7 [5]; below 4.00 in the test on MCF7 [6]. Also, the pIC50 in the test with HUVEC [7] is 4.54; with K562 [8], below 3.70.
Regarding `CC(CC[C@H]1/C(=C/c2ccc(I)cc2)CC[C@H]2C(C)(C)CCC[C@]12C)CC(=O)O` (some centres not stated), the Activity with K562 [13] is on record as 14.6%; in the test with K562 [9] it was 27.5%; in the test on K562 [14], 43.3%; in the test with K562 [15], 17.7%; with K562 [16], 25.2%; with K562 [17] it was 2.4%. In addition, the Activity with K562 [18] is recorded as 24.1%; with K562 [19], 21.9%; with K562 [20] it was 8.5%; in the test with K562 [10] it was 18.2%; with K562 [21] it was 24.4%; with K562 [22], 0.4%. The Activity in the test with K562 [11] was found to be 17.1%; with K562 [23], 7.3%; in the test with K562 [24], 23.2%; in the test on K562 [12], 35.8%; with K562 [25], 1.1%; with K562 [26] it was 7.2%. The Activity with K562 [27] is on record as 44.5%. The pIC50 in the test with K562 [1] was 4.26; with HUVEC [2] it was 3.71; with THP-1 [3], 4.17; in the test with THP-1 [4], 4.48; in the test with MCF7 [5], 4.30; in the test with MCF7 [6], 4.05. For the same molecule, the figures for the pIC50 with HUVEC [7] and with K562 [8] were 4.00 and 4.01, respectively.
On to `CC(CC[C@H]1/C(=C/c2ccc(Br)cc2)CC[C@H]2C(C)(C)CCC[C@]12C)CC(=O)O` (some centres not stated), for which the pIC50 with K562 [1], in the test with HUVEC [2], in the test on THP-1 [3], in the test with THP-1 [4], in the test on HUVEC [7] and in the test on K562 [8] was below 3.70 each time.
Regarding `O=c1[nH]cc(F)c(=O)[nH]1` [FLUOROURACIL], the pIC50 in the test with HUVEC [2] is below 3.70; in the test on MCF7 [5], 3.78; with MCF7 [6], below 3.70; in the test on HUVEC [7] it was 4.02.
As to `CC(CC[C@H]1/C(=C/c2ccc([N+](=O)[O-])cc2)CC[C@H]2C(C)(C)CCC[C@]12C)CC(=O)O` (some centres not stated), the pIC50 with K562 [1] is 3.77; with HUVEC [2], below 3.70; with THP-1 [3], 3.74; in the test with THP-1 [4], 4.17; in the test on MCF7 [5], 3.91; in the test on MCF7 [6], below 3.70. The pIC50 was 3.71 in the test with HUVEC [7] and below 3.70 with K562 [8].
As for `COc1ccc(/C=C2\CC[C@H]3C(C)(C)CCC[C@]3(C)[C@H]2CCC(C)CC(=O)O)cc1` (some centres not stated), the pIC50 in the test with K562 [1], in the test with HUVEC [2], with THP-1 [3], with THP-1 [4], with HUVEC [7] and in the test with K562 [8] was below 3.70 each time.
`C=C1CC[C@H]2C(C)(C)CCC[C@]2(C)[C@H]1CCC(C)CC(=O)O` (some centres not stated): the pIC50 with K562 [1] is below 3.70; in the test on HUVEC [2], below 3.70; in the test with THP-1 [3] it was below 3.70; with THP-1 [4], 3.88; in the test with MCF7 [5] it was below 3.70; in the test on MCF7 [6] it was below 3.70. Further, the results for the pIC50 in the test on HUVEC [7] and in the test with K562 [8] were 3.77 and below 3.70, respectively.

The values are drawn from ChEMBL document CHEMBL5030550, “A late-stage diversification via Heck-Matsuda arylation: Straightforward synthesis and cytotoxic/antiproliferative profiling of novel aryl-labdane-type derivatives” (Bioorg Med Chem Lett, 2021).
